Assay results from US10336702B2, “Pharmaceutically active compounds” (BERGENBIO ASA, priority 2015, dated 2019).

Legend:
Assay type in all cases: biochemical
Akt1 = target: T1, Akt1 (Homo sapiens, UniProt P31749); assay: Akt activation assay (PDK1-mediated activation, LANCE Ultra crosstide TR-FRET), Akt1; details: read-out: Biological Assay 1 IC50 (nM) Akt1
T1 construct: unspecified tag, removed (detagged) (cleaved yes); purchased SignalChem and Proteros (Akt1); Merck Millipore (PDK1) 14-452 (PDK1); none given for Akt1
Procedure: (§1) Biological Assay 1: Akt Activation Assay
(§2) Addition of a Europium-labelled antibody specific to the phosphopeptide allows energy transfer from the Europium donor to the Ultra Ulight™ acceptor if close enough in proximity.
(§3) Full length active His6-tagged PDK1 was obtained from Merck Millipore (14-452).
(§4) 1× assay buffer (AB): 50 mM HEPES pH 7.5, 1 mM EGTA, 10 mM MgCl2, 0.01% Tween. Immediately before use, DTT to a concentration of 2 mM was added.
(§5) To prepare lipid vesicles: 1 mg/ml PtdIns(3,4,5)P3 solution (in 10 mM HEPES 7.5) was added to 16.7 mg/ml DOPS/DOPC mixture (in 10 mM HEPES pH 7.5) in a ratio of 1:8.3. MilliQ water was added to the solution to generate concentrations of 400 μM DOPS, 400 μM DOPC and 40 μM PtdIns(3,4,5)P3. The mixture was subjected to 5× freeze/thaw cycles and aliquots stored at −20° C.
(§6) 5 μL enzyme in 1×AB was incubated with 2.5 μL test compound. To start the reaction 2.5 μL reaction mix was added which consisted of PDK1, lipid preparations, crosstide and ATP in 1×AB. Final assay concentrations were as follows: 1% DMSO, 5 nM SignalChem Akt1/15 nM SignalChem Akt2/3 nM Signalchem Akt3/5 nM Proteros Akt1/5 nM proteros Akt2/5 nM Proteros Akt3, 5 nM PDK1, 5.5 μM DOPS, 5.5 μM DOPC, 0.55 μM PtdIns(3,4,5)P3, 100 μM ATP, 100 nM LANCE® Ultra Ulight™-Crosstide. After 30 min, the reaction was stopped using 5 μL 40 μM EDTA in 1× Detection buffer for 5 min. For detection, 5 μL 8 nM LANCE® Ultra Europium-anti-phospho-Crosstide antibody in 1× Detection buffer was added to each well and incubated for 1 h. Plates read with the EnVision® Multilabel Plate Reader, excitation at 320 nm and emission at 665 nm and 615 nm. Compound IC50 was determined using a 4-parameter equation.

Akt3 = target: T2, Akt3 (Homo sapiens, UniProt Q9Y243); assay: Akt activation assay (PDK1-mediated activation, LANCE Ultra crosstide TR-FRET), Akt3; details: read-out: Biological Assay 1 IC50 (nM) Akt3
T2 construct: unspecified tag, removed (detagged) (cleaved yes); purchased SignalChem and Proteros (Akt3); Merck Millipore (PDK1) 14-452 (PDK1); none given for Akt3
Procedure: as §1, §2, §3, §4, §5, §6

Akt2 = target: T3, Akt2 (Homo sapiens, UniProt P31751); assay: Akt activation assay (PDK1-mediated activation, LANCE Ultra crosstide TR-FRET), Akt2; details: read-out: Biological Assay 1 IC50 (nM) Akt2
T3 construct: unspecified tag, removed (detagged) (cleaved yes); purchased SignalChem and Proteros (Akt2); Merck Millipore (PDK1) 14-452 (PDK1); none given for Akt2
Procedure: as §1, §2, §3, §4, §5, §6

T3 sequence (P31751 whole entry): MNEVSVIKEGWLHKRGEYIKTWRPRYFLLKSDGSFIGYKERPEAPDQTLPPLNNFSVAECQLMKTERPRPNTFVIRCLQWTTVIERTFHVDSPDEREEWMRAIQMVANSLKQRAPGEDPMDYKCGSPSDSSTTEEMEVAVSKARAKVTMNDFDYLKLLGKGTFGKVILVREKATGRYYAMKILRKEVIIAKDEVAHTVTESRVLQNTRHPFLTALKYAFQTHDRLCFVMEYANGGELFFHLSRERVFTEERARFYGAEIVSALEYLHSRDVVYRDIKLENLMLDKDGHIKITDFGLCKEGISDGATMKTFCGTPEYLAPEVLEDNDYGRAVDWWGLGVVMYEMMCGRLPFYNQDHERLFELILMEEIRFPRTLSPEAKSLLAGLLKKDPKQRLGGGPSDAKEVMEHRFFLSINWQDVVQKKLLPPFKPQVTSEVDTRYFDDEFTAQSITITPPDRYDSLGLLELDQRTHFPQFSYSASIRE
T2 sequence (Q9Y243 whole entry): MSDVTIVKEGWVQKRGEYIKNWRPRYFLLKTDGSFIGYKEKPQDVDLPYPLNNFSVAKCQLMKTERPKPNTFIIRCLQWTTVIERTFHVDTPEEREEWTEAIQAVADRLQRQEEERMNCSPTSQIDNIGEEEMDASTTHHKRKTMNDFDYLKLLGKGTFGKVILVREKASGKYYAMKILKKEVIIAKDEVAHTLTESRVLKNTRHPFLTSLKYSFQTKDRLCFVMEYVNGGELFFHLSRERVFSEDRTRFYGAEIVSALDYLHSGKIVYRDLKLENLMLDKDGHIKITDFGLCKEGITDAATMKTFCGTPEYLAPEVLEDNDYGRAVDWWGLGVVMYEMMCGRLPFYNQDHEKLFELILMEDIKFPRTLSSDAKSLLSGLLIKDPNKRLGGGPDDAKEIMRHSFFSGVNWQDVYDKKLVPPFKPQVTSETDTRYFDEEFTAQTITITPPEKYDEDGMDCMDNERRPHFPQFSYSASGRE
T1 sequence (P31749 whole entry): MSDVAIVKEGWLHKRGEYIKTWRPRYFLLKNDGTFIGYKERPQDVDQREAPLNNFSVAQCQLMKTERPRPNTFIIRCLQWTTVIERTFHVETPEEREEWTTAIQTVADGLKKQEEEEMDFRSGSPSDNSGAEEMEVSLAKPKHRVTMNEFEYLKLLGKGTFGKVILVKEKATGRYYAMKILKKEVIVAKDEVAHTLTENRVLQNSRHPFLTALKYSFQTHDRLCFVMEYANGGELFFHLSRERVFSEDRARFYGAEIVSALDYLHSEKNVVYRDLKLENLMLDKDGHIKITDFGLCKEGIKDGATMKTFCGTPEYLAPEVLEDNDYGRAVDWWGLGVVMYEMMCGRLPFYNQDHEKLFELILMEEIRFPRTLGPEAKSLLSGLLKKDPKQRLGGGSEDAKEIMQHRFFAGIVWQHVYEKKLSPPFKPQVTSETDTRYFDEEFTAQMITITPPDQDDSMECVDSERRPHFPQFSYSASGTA

Row | SMILES | IC50 (Akt1) [nM] | IC50 (Akt3) [nM] | IC50 (Akt2) [nM]
1 | CC(C)(C)C(=O)N[C@H]1CC[C@H](CC(=O)Nc2cnc(-c3ccc(C4(N)CC4)cc3)c(-c3ccccc3)c2)CC1 [Example A43, N-(trans-4-(2-((6-(4-(1-aminocyclopropyl)phenyl)-5-phenylpyridin-3-yl)amino)-2-oxoethyl)cyclohexyl)pivalamide] | > 22000 | 300 | 520
2 | CC(=O)N[C@H]1CC[C@H](CC(=O)Nc2cnc(-c3ccc(C(C)(C)N)cc3)c(-c3ccsc3)c2)CC1 [Example A23, 2-(trans-4-acetamidocyclohexyl)-N-(6-(4-(2-aminopropan-2-yl)phenyl)-5-(thiophen-3-yl)pyridin-3-yl)acetamide] | > 30000 | 1900 | 22000
3 | C[C@H](N)c1ccc(-c2ncc(NC(=O)C[C@H]3CC[C@H](NC(=O)C(C)(C)C(F)(F)F)CC3)cc2-c2ccccc2)cc1 [Example A10, N-(trans-4-(2-((6-(4-((S)-1-aminoethyl)phenyl)-5-phenylpyridin-3-yl)amino)-2-oxoethyl)cyclohexyl)-3,3,3-trifluoro-2,2-dimethylpropanamide] | > 30000 | 4600 | 18000
4 | CN(C(=O)C1(C)CC1)[C@H]1CC[C@H](CC(=O)Nc2cnc(-c3ccc(C(C)(C)N)cc3)c(-c3ccccc3)c2)CC1 [Example A31, N-(trans-4-(2-((6-(4-(2-aminopropan-2-yl)phenyl)-5-phenylpyridin-3-yl)amino)-2-oxoethyl)cyclohexyl)-N,1-dimethylcyclopropane-1-carboxamide] | > 30000 | 1400 | 11000
5 | C[C@@H](N)c1ccc(-c2ncc(NC(=O)C[C@H]3CC[C@H](NC(=O)C(C)(C)C(F)(F)F)CC3)cc2-c2ccccc2)cc1 [Example A11, N-(trans-4-(2-((6-(4-((R)-1-aminoethyl)phenyl)-5-phenylpyridin-3-yl)amino)-2-oxoethyl)cyclohexyl)-3,3,3-trifluoro-2,2-dimethylpropanamide] | – | 880 | 1500
6 | CC(=O)N(C)[C@H]1CC[C@H](CC(=O)Nc2cnc(-c3ccc([C@H](N)C(F)F)cc3)c(-c3ccccc3)c2)CC1 [Example 11, N-(6-(4-((S)-1-amino-2,2-difluoroethyl)phenyl)-5-phenylpyridin-3-yl)-2-(trans-4-(N-methylacetamido)cyclohexyl)acetamide] | > 30000 | 630 | > 20000
7 | CC(=O)N[C@H]1CC[C@H](CC(=O)Nc2cnc(-c3ccc([C@H](C)N)cc3)c(-c3ccccc3)c2)CC1 [Example A8, 2-(trans-4-acetamidocyclohexyl)-N-(6-(4-((S)-1-aminoethyl)phenyl)-5-phenylpyridin-3-yl)acetamide] | > 30000 | 530 | 6900
8 | CC(C)(C(=O)N[C@H]1CC[C@H](CC(=O)Nc2cnc(-c3ccc(C4(N)CCC4)cc3)c(-c3cccnc3)c2)CC1)C(F)(F)F [Example 20, N-(trans-4-(2-((2-(4-(1-aminocyclobutyl)phenyl)-[3,3′-bipyridin]-5-yl)amino)-2-oxoethyl)cyclohexyl)-3,3,3-trifluoro-2,2-dimethylpropanamide] | > 30000 | 6800 | > 15000
9 | C[C@H](N)c1ccc(-c2ncc(NC(=O)C[C@H]3CC[C@H](N(C)S(C)(=O)=O)CC3)cc2-c2ccccc2)cc1 [Example A13, N-(6-(4-((S)-1-aminoethyl)phenyl)-5-phenylpyridin-3-yl)-2-(trans-4-(N-methylmethylsulfonamido)cyclo-hexyl)acetamide] | > 30000 | 830 | 8100
10 | CN(C(=O)CC1CC1)[C@H]1CC[C@H](CC(=O)Nc2cnc(-c3ccc(C(C)(C)N)cc3)c(-c3ccccc3)c2)CC1 [Example A32, N-(trans-4-(2-((6-(4-(2-aminopropan-2-yl)phenyl)-5-phenylpyridin-3-yl)amino)-2-oxoethyl)cyclohexyl)-2-cyclopropyl-N-methylacetamide] | > 30000 | 630 | 9700

Now those with a lower IC50 (Akt3), led by results:

Row | IC50 (Akt1) [nM] | IC50 (Akt3) [nM] | IC50 (Akt2) [nM] | SMILES
11 | > 27000 | 25 | 810 | CC(C)(C)C(=O)N[C@H]1CC[C@H](CC(=O)Nc2cnc(-c3ccc(C4(N)CCC4)cc3)c(-c3ccsc3)c2)CC1 [Example A40, N-(trans-4-(2-((6-(4-(1-aminocyclobutyl)phenyl)-5-(thiophen-3-yl)pyridin-3-yl)amino)-2-oxoethyl)cyclohexyl)pivalamide]
12 | > 37000 | 55 | 4100 | CC1(C(=O)N[C@H]2CC[C@H](CC(=O)Nc3cnc(-c4ccc(C(C)(C)N)cc4)c(-c4ccccc4)c3)CC2)CC1 [Example A21, N-(trans-4-(2-((6-(4-(2-aminopropan-2-yl)phenyl)-5-phenylpyridin-3-yl)amino)-2-oxoethyl)cyclohexyl)-1-methylcyclopropane-1-carboxamide]
13 | > 30000 | 210 | 2600 | C[C@@H]1CC(CC(=O)Nc2cnc(-c3ccc(C4(N)COC4)cc3)c(-c3ccccc3)c2)C[C@H](C)O1 (some centres unmarked) [Example 22, N-(6-(4-(3-aminooxetan-3-yl)phenyl)-5-phenylpyridin-3-yl)-2-((2r,6s)-2,6-dimethyltetrahydro-2H-pyran-4-yl)acetamide]
14 | 12000 | 51 | 710 | CC(=O)N(C)[C@H]1CC[C@H](CC(=O)Nc2cnc(-c3ccc([C@@H](C)N)cc3)c(-c3ccccc3)c2)CC1 [Example 8, N-(6-(4-((R)-1-aminoethyl)phenyl)-5-phenylpyridin-3-yl)-2-(trans-4-(N-methylacetamido)cyclohexyl)acetamide]
15 | > 30000 | 290 | 16000 | CN(C(=O)CC(C)(C)C)[C@H]1CC[C@H](CC(=O)Nc2cnc(-c3ccc(C(C)(C)N)cc3)c(-c3ccccc3)c2)CC1 [Example A30, N-(trans-4-(2-((6-(4-(2-aminopropan-2-yl)phenyl)-5-phenylpyridin-3-yl)amino)-2-oxoethyl)cyclohexyl)-N,3,3-trimethylbutanamide]
16 | 8300 | 170 | 270 | CC(=O)N[C@H]1CC[C@H](CC(=O)Nc2cnc(-c3ccc(C4(N)CC(F)(F)C4)cc3)c(-c3ccccc3)c2)CC1 [Example 25, 2-(trans-4-acetamidocyclohexyl)-N-(6-(4-(1-amino-3,3-difluorocyclobutyl)phenyl)-5-phenylpyridin-3-yl)acetamide]
17 | 9800 | 210 | 260 | CN([C@H]1CC[C@H](CC(=O)Nc2cnc(-c3ccc(C4(N)CCC4)cc3)c(-c3ccccc3F)c2)CC1)S(C)(=O)=O [Example A16, N-(6-(4-(1-aminocyclobutyl)phenyl)-5-(2-fluorophenyl)pyridin-3-yl)-2-(trans-4-(N-methylmethylsulfonamido)cyclo-hexyl)acetamide]
18 | > 30000 | 56 | 590 | NC1(c2ccc(-c3ncc(NC(=O)C[C@H]4CC[C@H](NS(=O)(=O)C5CC5)CC4)cc3-c3ccccc3)cc2)COC1 [Example 37, N-(6-(4-(3-aminooxetan-3-yl)phenyl)-5-phenylpyridin-3-yl)-2-(trans-4-(cyclopropanesulfonamido)cyclohexyl)acetamide]
19 | > 30000 | 160 | – | CC(C)(C)C(=O)N[C@H]1CC[C@H](CC(=O)Nc2cnc(-c3ccc(C(C)(C)N)cc3)c(-c3ccccc3)c2)CC1 [Example A34, N-(trans-4-(2-((6-(4-(2-aminopropan-2-yl)phenyl)-5-phenylpyridin-3-yl)amino)-2-oxoethyl)cyclohexyl)pivalamide]
20 | – | 80 | 400 | CC(=O)N[C@H]1CC[C@H](CC(=O)Nc2cnc(-c3ccc([C@@H](C)N)cc3)c(-c3ccccc3)c2)CC1 [Example A9, 2-(trans-4-acetamidocyclohexyl)-N-(6-(4-((R)-1-aminoethyl)phenyl)-5-phenylpyridin-3-yl)acetamide]
21 | – | 220 | 480 | CC(=O)N[C@H]1CC[C@H](CC(=O)Nc2cnc(-c3ccc([C@]4(N)C[C@@H](O)C4)cc3)c(-c3ccccc3)c2)CC1 [Example 13, 2-(trans-4-acetamidocyclohexyl)-N-(6-(4-(trans-1-amino-3-hydroxycyclobutyl)phenyl)-5-phenylpyridin-3-yl)acetamide]
